# Patent US20240408216A1, “PROTEIN INHIBITOR OR DEGRADING AGENT, PHARMACEUTICAL COMPOSITION CONTAINING SAME AND PHARMACEUTICAL USE” (JING MEDICINE TECHNOLOGY (SHANGHAI) LTD., priority 2021, published 2024)
# Legend:
# [1] = test system: BaF3 (EGFR Del19/T790M/C797S); assay: Cell proliferation IC50 assay (Cell Titer GLO), BaF3 DTC cells; assay type: cell-based; settings: Mus musculus, Ba/F3 EGFR-Del19/T790M/C797S, Table 6, 72 h
# Experimental: IC50 of compounds in the present invention was determined by Cell Titer GLO reagent from Promega. The procedures are as follows:
# Tumor cells were cultured in specified medium in an incubator at 37° C. and 5% CO2. The cells were passaged periodically. Cells at the logarithmic growth phase were collected for plating at a density of 2000-4000 cells/well. The next day, the compounds of the present invention were serially diluted and added to the cells, with DMSO being the negative control and the culture media without cells being the blank control. The plate was incubated in the incubator for 72 h. The cell viability assay was performed by adding the detection reagents to the cell culture media according to Cell Titer GLO reagent instructions and detecting luminescent signals on an EnVision microplate reader (PerkinElmer).
# Inhibition of cell growth by the compounds of the present invention was plotted by Prism Graphpad software for statistically calculating the IC50 of the compound of the present invention.
# [2] = test system: BaF3 (EGFR L858R/T790M/C797S); assay: Cell proliferation IC50 assay (Cell Titer GLO), BaF3 LTC cells; assay type: cell-based; settings: Mus musculus, Ba/F3 EGFR, Table 6, 72 h
# Procedure, shortened: (§1)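 Each cell line, plated at 2000-4000 cells/well, received serially diluted compound for 72 h (37° C, 5% CO2) before luminescent ATP-based viability detection. IC50 values were derived from growth inhibition relative to DMSO-treated and cell-free blank wells.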
# [3] = target: T1, BaF3 (EGFR Del19/C797S) (Homo sapiens, UniProt P00533, C797S, cells depend on it, form not given); assay: Cell proliferation IC50 assay (Cell Titer GLO), BaF3 DC cells; assay type: cell-based, mouse; settings: Table 6, 72 h
# T1 construct: BaF3 (EGFR Del19/C797S)|DC|RPMI1640 + 10% FBS
# Procedure, shortened: as §1
# [4] = test system: BaF3 (EGFR WT); assay: Cell proliferation IC50 assay (Cell Titer GLO), BaF3 WT cells; assay type: cell-based; settings: Mus musculus, Ba/F3 EGFR, Table 6, 10 ng/ml EGF, 72 h
# Procedure, shortened: as §1
# [5] = test system: A431; assay: Cell proliferation IC50 assay (Cell Titer GLO), A431 cells; assay type: cell-based; settings: Homo sapiens, A-431; Table 6; A431, 72 h; read-out: A431 IC50
# Procedure, shortened: as §1
# T1 sequence (P00533 with tags, fused parts or gaps DEL746-750/C797S, form open): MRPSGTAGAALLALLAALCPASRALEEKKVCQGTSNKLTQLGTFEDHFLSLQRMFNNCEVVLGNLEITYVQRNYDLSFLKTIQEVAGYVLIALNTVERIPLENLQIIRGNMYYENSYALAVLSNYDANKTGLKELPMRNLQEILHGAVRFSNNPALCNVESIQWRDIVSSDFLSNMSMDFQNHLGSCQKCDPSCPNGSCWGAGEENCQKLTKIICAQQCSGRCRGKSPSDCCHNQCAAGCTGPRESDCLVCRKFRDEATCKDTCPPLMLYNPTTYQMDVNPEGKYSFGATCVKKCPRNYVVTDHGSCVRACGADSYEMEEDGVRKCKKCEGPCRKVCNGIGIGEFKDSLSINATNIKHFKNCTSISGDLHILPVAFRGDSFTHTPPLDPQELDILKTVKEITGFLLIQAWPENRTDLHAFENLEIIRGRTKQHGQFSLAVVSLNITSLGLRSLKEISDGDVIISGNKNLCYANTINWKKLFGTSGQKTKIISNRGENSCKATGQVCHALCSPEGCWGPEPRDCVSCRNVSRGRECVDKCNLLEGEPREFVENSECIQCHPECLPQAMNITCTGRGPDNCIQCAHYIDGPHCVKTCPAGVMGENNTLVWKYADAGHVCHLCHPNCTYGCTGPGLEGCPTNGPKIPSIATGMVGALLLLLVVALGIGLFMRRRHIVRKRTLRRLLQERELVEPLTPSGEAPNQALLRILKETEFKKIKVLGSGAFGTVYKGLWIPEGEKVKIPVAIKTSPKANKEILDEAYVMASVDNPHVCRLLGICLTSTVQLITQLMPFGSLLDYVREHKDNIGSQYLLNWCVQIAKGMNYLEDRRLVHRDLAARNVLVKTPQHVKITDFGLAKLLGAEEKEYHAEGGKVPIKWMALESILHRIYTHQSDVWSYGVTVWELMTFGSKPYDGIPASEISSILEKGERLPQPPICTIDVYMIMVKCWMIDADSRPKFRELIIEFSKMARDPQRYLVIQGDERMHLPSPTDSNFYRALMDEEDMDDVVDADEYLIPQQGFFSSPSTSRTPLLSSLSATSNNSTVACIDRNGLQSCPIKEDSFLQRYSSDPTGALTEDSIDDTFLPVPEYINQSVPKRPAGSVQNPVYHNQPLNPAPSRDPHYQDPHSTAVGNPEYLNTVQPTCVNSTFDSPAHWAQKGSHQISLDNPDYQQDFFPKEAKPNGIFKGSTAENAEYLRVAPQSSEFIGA
Compound,IC50 [1] [nM],IC50 [2] [nM],IC50 [3] [nM],IC50 [4] [nM],IC50 [5] [nM]
COc1cc(N2CCC(N3CCN(CCC#Cc4cccc5c4CN(C4CCC(=O)NC4=O)C5=O)CC3)CC2)c(CO)cc1Nc1ncc(Cl)c(Nc2ccccc2P(C)(C)=O)n1 (centres unmarked) [Example E91],18.5,115,5.2,305,1430
CCc1cc(Nc2ncc(Cl)c(Nc3ccccc3P(C)(C)=O)n2)cc(OC)c1N1CCC(N2CCN(CCC#Cc3cccc4c3CN(C3CCC(=O)NC3=O)C4=O)CC2)CC1 (centres unmarked) [Example E93],9.74,68.6,15,75.4,827
CCc1cc(Nc2ncc(Cl)c(Nc3ccccc3P(C)(C)=O)n2)c(OC)cc1N1CCC(N2CCN(CCCC#Cc3ccc4c(N5CCC(=O)NC5=O)nn(C)c4c3)CC2)CC1 [Example E97],45.6,173,20.6,1060,1070
COc1cc(C2CCN(C3CCN(CCCCOc4cccc5c4CN(C4CCC(=O)NC4=O)C5=O)CC3)CC2)c(OC)cc1Nc1ncc(Cl)c(Nc2ccccc2P(C)(C)=O)n1 (centres unmarked) [Example E98],15.5,45.2,5,566,1170
COc1cc(N2CCC(N3CCN(CCCCOc4cccc5c4CN(C4CCC(=O)NC4=O)C5=O)CC3)CC2)c(C#N)cc1Nc1ncc(Cl)c(Nc2ccccc2P(C)(C)=O)n1 (centres unmarked) [Example E103],5.54,21.8,4.6,639,1010
CCc1cc(Nc2ncc(Cl)c(Nc3ccccc3P(C)(C)=O)n2)c(OC)cc1N1CCC(N2CCN(CCOc3cccc4c3CN(C3CCC(=O)NC3=O)C4=O)C(C)(C)C2)CC1 (centres unmarked) [Example E108],10.5,76.7,3.2,1750,3550
CCc1cc(Nc2ncc(Cl)c(Nc3ccccc3P(C)(C)=O)n2)c(OC)cc1N1CCC(N2CCN(CCOCCc3cccc4c3CN(C3CCC(=O)NC3=O)C4=O)CC2)CC1 (centres unmarked) [Example E109],10.5,83.3,6.5,> 4000,1140
CCc1cc(Nc2ncc(Cl)c(Nc3ccccc3P(C)(C)=O)n2)c(OC)cc1N1CCC(N2CCN(C(=O)CNc3cccc4c3C(=O)N(C3CCC(=O)NC3=O)C4=O)CC2)CC1 (centres unmarked) [Example E112],18.4,85.4,10.7,> 4000,1370
CCc1cc(Nc2ncc(Cl)c(Nc3ccccc3P(C)(C)=O)n2)c(OC)nc1N1CCC(N2CCN(CCCCOc3cccc4c3CN(C3CCC(=O)NC3=O)C4=O)CC2)CC1 (centres unmarked) [Example E115],5.19,24.4,1.4,779,1160
CCc1cc(Nc2ncc(Cl)c(Nc3ccccc3P(C)(C)=O)n2)c(OC)cc1N1CCC(N(C)CCCCOc2cccc3c2CN(C2CCC(=O)NC2=O)C3=O)CC1 (centres unmarked) [Example E116],7.32,56.3,4.3,> 4000,1220
CCc1cc(Nc2ncc(Cl)c(Nc3ccc(F)cc3P(C)(C)=O)n2)c(OC)cc1N1CCC(N2CCN(CCOc3cccc4c3CN(C3CCC(=O)NC3=O)C4=O)CC2)CC1 (centres unmarked) [Example E124],6.8,106,106,3970,1270
COCc1cc(Nc2ncc(Cl)c(Nc3ccccc3P(C)(C)=O)n2)c(OC)cc1N1CCC(N2CCN(CCCCOc3cccc4c3CN(C3CCC(=O)NC3=O)C4=O)CC2)CC1 (centres unmarked) [Example E125],20.3,104,18.4,> 4000,> 4000
CCc1cc(Nc2nc(Nc3ccccc3P(C)(C)=O)c3cc[nH]c3n2)c(OC)cc1N1CCC(N2CCN(CCOc3cccc4c3CN(C3CCC(=O)NC3=O)C4=O)CC2)CC1 (centres unmarked) [Example E126],18.9,72.3,44,> 4000,> 4000
CCc1cc(Nc2ncc(Cl)c(Nc3ccccc3P(C)(C)=O)n2)c(OC)cc1N1CCC(N2C[C@@H](C)N(CCCCOc3cccc4c3CN(C3CCC(=O)NC3=O)C4=O)[C@@H](C)C2)CC1 (some centres unmarked) [Example E129],6.13,47.7,3.3,889,1330
CCc1cc(Nc2ncc(Cl)c(Nc3ccccc3P(C)(C)=O)n2)c(OC)cc1N1CCC(N2C[C@@H]3C[C@H]2CN3CCOc2cccc3c2CN(C2CCC(=O)NC2=O)C3=O)CC1 (some centres unmarked) [Example E137],11.5,76.3,6.6,1080,1270
CCc1cc(Nc2nc(Nc3ccccc3P(C)(C)=O)c3cc[nH]c3n2)c(C)cc1N1CCC(N2CCN(CCCCOc3cccc4c3CN(C3CCC(=O)NC3=O)C4=O)CC2)CC1 (centres unmarked) [Example E140],7.97,54.6,8.1,> 4000,> 4000
COc1cc(N2CCC(N3CCN(CCCCOc4cccc5c4CN(C4CCC(=O)NC4=O)C5=O)CC3)CC2)c(-c2cnn(C)c2)cc1Nc1ncc(Cl)c(Nc2ccccc2P(C)(C)=O)n1 (centres unmarked) [Example E146],15.7,55.8,5.6,188,908
CCc1cc(Nc2ncc(Cl)c(Nc3ccccc3P(C)(C)=O)n2)c(OC(F)F)cc1N1CCC(N2CCN(CCOc3cccc4c3CN(C3CCC(=O)NC3=O)C4=O)CC2)CC1 (centres unmarked) [Example E151],3.85,56.1,6.7,> 4000,3160
CCc1cc(Nc2ncc(Cl)c(Nc3ccccc3P(C)(C)=O)n2)c(OC(F)(F)F)cc1N1CCC(N2CCN(CCOc3cccc4c3CN(C3CCC(=O)NC3=O)C4=O)CC2)CC1 (centres unmarked) [Example E152],7.63,227,16.2,> 4000,1470
CCc1cc(Nc2ncc(Cl)c(Nc3ccccc3P(C)(C)=O)n2)c(OC)cc1N1CCC(N2CCN(C(C)(C)C#Cc3cccc4c3CN(C3CCC(=O)NC3=O)C4=O)CC2)CC1 (centres unmarked) [Example E156],10.7,218,16.7,> 4000,≥ 1540
CCc1cc(Nc2ncc(Cl)c(Nc3ccccc3P(C)(C)=O)n2)c(OC)cc1N1CCC(N2CCN(CC(C)(C)Oc3cccc4c3CN(C3CCC(=O)NC3=O)C4=O)CC2)CC1 (centres unmarked) [Example E157],11.2,103,33.7,3780,3170
CCc1cc(Nc2ncc(Cl)c(Nc3ccccc3P(C)(C)=O)n2)c(OC)cc1N1CCC(N2CCN([C@H]3C[C@H](Oc4cccc5c4CN(C4CCC(=O)NC4=O)C5=O)C3)CC2)CC1 (some centres unmarked) [Example E160],2.89,14.3,0.8,1290,2410
CCc1cc(Nc2ncc(-n3cccn3)c(Nc3ccccc3P(C)(C)=O)n2)c(OC)cc1N1CCC(N2CCN(CCOc3cccc4c3CN(C3CCC(=O)NC3=O)C4=O)CC2)CC1 (centres unmarked) [Example E165],780,> 4000,4.2,> 4000,> 4000
CCc1cc(Nc2ncc(-c3cn[nH]c3)c(Nc3ccccc3P(C)(C)=O)n2)c(OC)cc1N1CCC(N2CCN(CCOc3cccc4c3CN(C3CCC(=O)NC3=O)C4=O)CC2)CC1 (centres unmarked) [Example E167],37.8,3050,1.5,975,1100
COc1cc(N2CCC(N3CCN(CCCCOc4cccc5c4CN(C4CCC(=O)NC4=O)C5=O)CC3)CC2)c(CC#N)cc1Nc1ncc(Cl)c(Nc2ccccc2P(C)(C)=O)n1 (centres unmarked) [Example E179],5.94,44.6,1.3,153,1160
COc1cc(N2CCC(N3CCN(CCC#Cc4cccc5c4CN(C4CCC(=O)NC4=O)C5=O)CC3)CC2)c(CC#N)cc1Nc1ncc(Cl)c(Nc2ccccc2P(C)(C)=O)n1 (centres unmarked) [Example E180],5.35,22.6,2.4,888,1100
COc1cc(N2CCC(N3CCN(CCOc4cccc5c4CN(C4CCC(=O)NC4=O)C5=O)CC3)CC2)c(C(C)=O)cc1Nc1ncc(Cl)c(Nc2ccccc2P(C)(C)=O)n1 (centres unmarked) [Example E185],18.8,144,20.3,1650,1830
CCc1cc(Nc2ncc(Cl)c(Nc3ccccc3P(C)(C)=O)n2)c(OC)cc1N1CCC(N2CCN([C@H]3C[C@H](Oc4cc5c(cc4F)C(=O)N(C4CCC(=O)NC4=O)C5)C3)CC2)CC1 (some centres unmarked) [Example E205],6.87,51.7,9.9,> 4000,1050
